In ChEMBL document CHEMBL1157447, “Discovery and biological evaluation of novel alpha-glucosidase inhibitors with in vivo antidiabetic effect” (2008):

Key:
Rattus norvegicus [1] = test: Antidiabetic activity in po dosed Streptozotocin induced diabetic Sprague-Dawley rat assessed as decrease in serum glucose level after 60 mins; assay type: functional; parameters: concentration or dose not given beside the values
Saccharomyces cerevisiae = test: Inhibition of alpha glucosidase from baker's yeast at 50 uM
Rattus norvegicus [2] = test: Antidiabetic activity in po dosed Streptozotocin induced diabetic Sprague-Dawley rat assessed as decrease in serum glucose level after 120 mins; assay type: functional; parameters: scale not given: the % may be the effect or the level left

| SMILES | Activity (Rattus norvegicus [1]) [%] | inhibition (Saccharomyces cerevisiae) [%] | Activity (Rattus norvegicus [2]) [%] |
| --- | --- | --- | --- |
| Cc1ccc(Nc2nc(N)nc(COc3cccc4cccnc34)n2)cc1 | 20 | 78.9 |  |
| COc1ccc(N2C(=O)NC(=O)/C(=C\c3cccn3CCOc3cccc(C)c3)C2=O)cc1Cl | 5 | 88.7 | 23 |
| N#C/C(=C\Nc1cccc(F)c1)c1nc(-c2cc3ccccc3oc2=O)cs1 | 20 | 75.2 |  |
| C[C@H]1O[C@H](O[C@H]2[C@H](O)[C@@H](O)[C@@H](OC3[C@@H](CO)OC(O)[C@H](O)[C@H]3O)O[C@@H]2CO)[C@H](O)[C@@H](O)[C@@H]1N[C@H]1C=C(CO)[C@@H](O)[C@H](O)[C@H]1O (single isomer, unassigned) |  | 88.1 |  |
| CCc1ccc(N2C(=O)NC(=O)/C(=C\c3cccn3CCOc3cccc(C)c3)C2=O)cc1 | 20 | 86 |  |
